The text below walks through data of paper PMC11678531, “C118P Suppresses Gastric Cancer Growth via Promoting Autophagy–Lysosomal Degradation of RAB1A” (Pharmaceutics, 2024).

Usually Kd stands for the constant that tells how readily two partners part at equilibrium.

This test concerns the target T1, RAB1A (Human Rab1a Recombinant protein) (Homo sapiens, UniProt P62820).
T1 construct: commercial recombinant protein (Shanghai Chunmai Biotechnology); RED-NHS labelled
Put plainly: microscale thermophoresis. Type of test: binding. Particulars: RED-NHS labelled protein; room temperature; C118P 0.61 pM to 20 µM.

T1 sequence (P62820 2-205): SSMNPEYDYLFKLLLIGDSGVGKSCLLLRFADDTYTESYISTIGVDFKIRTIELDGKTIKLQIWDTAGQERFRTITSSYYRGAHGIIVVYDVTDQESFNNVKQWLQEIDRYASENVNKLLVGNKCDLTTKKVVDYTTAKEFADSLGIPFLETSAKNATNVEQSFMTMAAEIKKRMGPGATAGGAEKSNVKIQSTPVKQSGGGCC

In the case of `COc1cc(OC)cc(-c2nc[nH]c2-c2ccc(OC)c(OP(=O)(O)O)c2)c1` [C118P], the Kd was determined as 3.13 nM.
